Measurements taken from the NIST ThermoML archive (doi:10.1021/je050455+).
Numbers after ± are expanded uncertainties.

Details: 293.15 K; 101.33 kPa; Liquid; Vibrating tube method

mass density [kg/m3] | Structure (SMILES)
1330 ± 20 | C[n+]1ccn(CCO)c1.F[B-](F)(F)F [1-(2-hydroxyethyl)-3-methylimidazolium tetrafluoroborate]
1360 ± 20 | Cc1n(CCO)cc[n+]1C.F[B-](F)(F)F [1-(2-hydroxyethyl)-2,3-dimethylimidazolium tetrafluoroborate]
